Measured values reported in ChEMBL document CHEMBL3792365, “Dioxol and dihydrodioxin analogs of 2- and 3-phenylacetonitriles as potent anti-cancer agents with nanomolar activity against a variety of human cancer cells” (2016).

Legend:
Assay type in all cases: functional
[1] = system: NCI-H226; assay: Growth inhibition of human NCI-H226 cells at 10 uM after 48 hrs by sulforhodamine B assay; settings: NCI-H226, 48 h, values are per cent of control
[2] = system: NCI-H460; assay: Growth inhibition of human NCI-H460 cells at 10 uM after 48 hrs by sulforhodamine B assay; settings: NCI-H460, 48 h, values are per cent of control
[3] = Growth inhibition of human Caki1 cells at 10 uM after 48 hrs by sulforhodamine B assay; settings: CAKI-1, 48 h, values are per cent of control
[4] = Growth inhibition of human BT549 cells at 10 uM after 48 hrs by sulforhodamine B assay; settings: BT-549, 48 h, values are per cent of control
[5] = Growth inhibition of human HOP62 cells at 10 uM after 48 hrs by sulforhodamine B assay; settings: HOP-62, 48 h, values are per cent of control
[6] = Growth inhibition of human COLO205 cells at 10 uM after 48 hrs by sulforhodamine B assay; settings: COLO 205, 48 h, values are per cent of control
[7] = system: K562; assay: Growth inhibition of human K562 cells at 10 uM after 48 hrs by sulforhodamine B assay; settings: K562, 48 h, values are per cent of control
[8] = system: MDA-MB-435; assay: Growth inhibition of human MDA-MB-435 cells at 10 uM after 48 hrs by sulforhodamine B assay; settings: MDA-MB-435, 48 h, values are per cent of control
[9] = Growth inhibition of human Hs 578T cells at 10 uM after 48 hrs by sulforhodamine B assay; settings: values are per cent of control
[10] = Growth inhibition of human SNB75 cells at 10 uM after 48 hrs by sulforhodamine B assay; settings: SNB-75, 48 h, values are per cent of control
[11] = system: A549; assay: Growth inhibition of human A549/ATCC cells at 10 uM after 48 hrs by sulforhodamine B assay; settings: A549, 48 h, values are per cent of control
[12] = system: SN12C; assay: Growth inhibition of human SN12C cells at 10 uM after 48 hrs by sulforhodamine B assay; settings: values are per cent of control
[13] = system: SK-MEL-2; assay: Growth inhibition of human SK-MEL-2 cells at 10 uM after 48 hrs by sulforhodamine B assay; settings: SK-MEL-2, 48 h, values are per cent of control
[14] = Growth inhibition of human SF539 cells at 10 uM after 48 hrs by sulforhodamine B assay; settings: SF-539, 48 h, values are per cent of control
[15] = system: KM12; assay: Growth inhibition of human KM12 cells at 10 uM after 48 hrs by sulforhodamine B assay; settings: KM12, 48 h, values are per cent of control
[16] = system: MDA-MB-231; assay: Growth inhibition of human MDA-MB-231 cells at 10 uM after 48 hrs by sulforhodamine B assay; settings: MDA-MB-231, 48 h, values are per cent of control
[17] = system: A498; assay: Growth inhibition of human A498 cells at 10 uM after 48 hrs by sulforhodamine B assay; settings: A498, 48 h, values are per cent of control
[18] = system: HT-29; assay: Growth inhibition of human HT-29 cells at 10 uM after 48 hrs by sulforhodamine B assay; settings: HT-29, 48 h, values are per cent of control
[19] = Growth inhibition of human HCT116 cells at 10 uM after 48 hrs by sulforhodamine B assay; settings: HCT-116, 48 h, values are per cent of control
[20] = Growth inhibition of human TK10 cells at 10 uM after 48 hrs by sulforhodamine B assay; settings: TK-10, 48 h, values are per cent of control
[21] = Growth inhibition of human SF268 cells at 10 uM after 48 hrs by sulforhodamine B assay; settings: SF-268, 48 h, values are per cent of control
[22] = Growth inhibition of human UACC62 cells at 10 uM after 48 hrs by sulforhodamine B assay; settings: UACC-62, 48 h, values are per cent of control
[23] = system: SK-MEL-28; assay: Growth inhibition of human SK-MEL-28 cells at 10 uM after 48 hrs by sulforhodamine B assay; settings: SK-MEL-28, 48 h, values are per cent of control
[24] = system: NCI-H322M; assay: Growth inhibition of human NCI-H322M cells at 10 uM after 48 hrs by sulforhodamine B assay; settings: values are per cent of control
[25] = system: NCI-H522; assay: Growth inhibition of human NCI-H522 cells at 10 uM after 48 hrs by sulforhodamine B assay; settings: NCI-H522, 48 h, values are per cent of control
[26] = system: U-251; assay: Growth inhibition of human U251 cells at 10 uM after 48 hrs by sulforhodamine B assay; settings: U-251, 48 h, values are per cent of control
[27] = Growth inhibition of human SW620 cells at 10 uM after 48 hrs by sulforhodamine B assay; settings: SW-620, 48 h, values are per cent of control
[28] = system: MDA-MB-468; assay: Growth inhibition of human MDA-MB-468 cells at 10 uM after 48 hrs by sulforhodamine B assay; settings: MDA-MB-468, 48 h, values are per cent of control
[29] = Growth inhibition of human DU145 cells at 10 uM after 48 hrs by sulforhodamine B assay; settings: DU-145, 48 h, values are per cent of control
[30] = system: NCI-H23; assay: Growth inhibition of human NCI-H23 cells at 10 uM after 48 hrs by sulforhodamine B assay; settings: NCI-H23, 48 h, values are per cent of control
[31] = Growth inhibition of human SNB19 cells at 10 uM after 48 hrs by sulforhodamine B assay; settings: SNB-19, 48 h, values are per cent of control
[32] = Growth inhibition of human SF295 cells at 10 uM after 48 hrs by sulforhodamine B assay; settings: SF-295, 48 h, values are per cent of control
[33] = Growth inhibition of human UO31 cells at 10 uM after 48 hrs by sulforhodamine B assay; settings: UO-31, 48 h, values are per cent of control
[34] = Growth inhibition of human HCC2998 cells at 10 uM after 48 hrs by sulforhodamine B assay; settings: HCC 2998, 48 h, values are per cent of control
[35] = system: M14; assay: Growth inhibition of human M14 cells at 10 uM after 48 hrs by sulforhodamine B assay; settings: M14, 48 h, values are per cent of control
[36] = Growth inhibition of human OVCAR5 cells at 10 uM after 48 hrs by sulforhodamine B assay; settings: OVCAR-5, 48 h, values are per cent of control
[37] = system: T47D; assay: Growth inhibition of human T47D cells at 10 uM after 48 hrs by sulforhodamine B assay; settings: values are per cent of control
[38] = Growth inhibition of human OVCAR4 cells at 10 uM after 48 hrs by sulforhodamine B assay; settings: OVCAR-4, 48 h, values are per cent of control
[39] = Growth inhibition of human IGROV1 cells at 10 uM after 48 hrs by sulforhodamine B assay; settings: IGROV-1, 48 h, values are per cent of control
[40] = Growth inhibition of human LOXIMVI cells at 10 uM after 48 hrs by sulforhodamine B assay; settings: LOX IMVI, values are per cent of control

COc1cc(/C(C#N)=C/c2ccc3c(c2)OCCO3)cc(OC)c1OC
growth, % of control at 10 µM [1]: 43.9%
growth, % of control at 10 µM [2]: 5.2%
growth, % of control at 10 µM [3]: 20%
growth, % of control at 10 µM [4]: -17.2%
growth, % of control at 10 µM [5]: 40.8%
growth, % of control at 10 µM [6]: -74.4%
growth, % of control at 10 µM [7]: 7.5%
growth, % of control at 10 µM [8]: -22.2%
growth, % of control at 10 µM [9]: 18.7%
growth, % of control at 10 µM [10]: 17.1%
growth, % of control at 10 µM [11]: 21.1%
growth, % of control at 10 µM [12]: 34.5%
growth, % of control at 10 µM [13]: 24.1%
growth, % of control at 10 µM [14]: 2.5%
growth, % of control at 10 µM [15]: 2%
growth, % of control at 10 µM [16]: 13.7%
growth, % of control at 10 µM [17]: -11%
growth, % of control at 10 µM [18]: 0.4%
growth, % of control at 10 µM [19]: -12.3%
growth, % of control at 10 µM [20]: 48.5%
growth, % of control at 10 µM [21]: 24.6%
growth, % of control at 10 µM [22]: 45.4%
growth, % of control at 10 µM [23]: 63%
growth, % of control at 10 µM [24]: 24.2%
growth, % of control at 10 µM [25]: -27%
growth, % of control at 10 µM [26]: 8.1%
growth, % of control at 10 µM [27]: 25.2%
growth, % of control at 10 µM [28]: -15.1%
growth, % of control at 10 µM [29]: 6.7%
growth, % of control at 10 µM [30]: 20.7%
growth, % of control at 10 µM [31]: 51.2%
growth, % of control at 10 µM [32]: -8%
growth, % of control at 10 µM [33]: 23.9%
growth, % of control at 10 µM [34]: 14.9%
growth, % of control at 10 µM [35]: 5.7%
growth, % of control at 10 µM [36]: 49.1%
growth, % of control at 10 µM [37]: 84.4%
growth, % of control at 10 µM [38]: 44.9%
growth, % of control at 10 µM [39]: 25.5%
growth, % of control at 10 µM [40]: 24.7%

N#C/C(=C\c1ccc(Cl)c(Cl)c1)c1ccc2c(c1)OCO2
growth, % of control at 10 µM [1]: 98.9%
growth, % of control at 10 µM [2]: 84.7%
growth, % of control at 10 µM [3]: 87.4%
growth, % of control at 10 µM [4]: 94.1%
growth, % of control at 10 µM [5]: 88%
growth, % of control at 10 µM [6]: 93.2%
growth, % of control at 10 µM [7]: 94.8%
growth, % of control at 10 µM [8]: 93.7%
growth, % of control at 10 µM [9]: 81.3%
growth, % of control at 10 µM [10]: 20.3%
growth, % of control at 10 µM [11]: 70%
growth, % of control at 10 µM [12]: 93.5%
growth, % of control at 10 µM [13]: 89.7%
growth, % of control at 10 µM [14]: 86.9%
growth, % of control at 10 µM [15]: 91.7%
growth, % of control at 10 µM [16]: 80.5%
growth, % of control at 10 µM [17]: 94.3%
growth, % of control at 10 µM [18]: 102%
growth, % of control at 10 µM [19]: 70.1%
growth, % of control at 10 µM [20]: 90.2%
growth, % of control at 10 µM [21]: 80.9%
growth, % of control at 10 µM [22]: 108%
growth, % of control at 10 µM [23]: 105%
growth, % of control at 10 µM [24]: 74.1%
growth, % of control at 10 µM [25]: 82.7%
growth, % of control at 10 µM [26]: 86.3%
growth, % of control at 10 µM [27]: 89.8%
growth, % of control at 10 µM [28]: 101%
growth, % of control at 10 µM [29]: 94.1%
growth, % of control at 10 µM [30]: 88%
growth, % of control at 10 µM [31]: 105%
growth, % of control at 10 µM [32]: 77%
growth, % of control at 10 µM [33]: 73.7%
growth, % of control at 10 µM [34]: 92.1%
growth, % of control at 10 µM [35]: 96.5%
growth, % of control at 10 µM [36]: 99.3%
growth, % of control at 10 µM [37]: 74.7%
growth, % of control at 10 µM [38]: 26.1%
growth, % of control at 10 µM [39]: 67.2%
growth, % of control at 10 µM [40]: 62.7%
